In general, Tmax refers to the time at which the peak concentration occurs. Broadly, the NOAEL is the highest tested level that showed no adverse finding. What is called AUC(0-t) is the area under the concentration-time curve up to a stated or last time point. A higher AUC(0-t) goes with more exposure. What is called Cmax is the highest concentration seen after dosing. By AUC is commonly meant concentration integrated over time. A lower AUC goes with low exposure.

A short description of series [1]: 28 day twice daily topical administration, toxicokinetics, dermal irritancy and toxicity. The series is classed as in vivo, Gottingen minipigs. The conditions noted are these: for concentration at 29 day: Skin Concentration. The procedure:
Following dose application on each dosing day, the dose sites were semi-occluded for approximately 20±1 hours from the first dose and then gently washed before the next dose was applied.

For series [2] the following is noted: Dermal 4% cream, BID, Minipig, 13 weeks.
Series [3] in a line: solubility of the active ingredient in solvents. The series is classed as physicochemical. The procedure: The solubility of the active ingredient in different solvents was determined. […] The following formulations were prepared with 5%, 10%, 15% and 20% MCT (Formulations 15-18). Two formulations (Formulations 19 and 20) were also prepared where Polawax (a proprietary blend of cetostearyl alcohol and emulsifiers) was replaced with cetostearyl alcohol and additional emulsifier.

Series [4] in a line: in vivo. Conditions: rat, sc, 3 mg/kg/day.
Series [5] in a line: in vivo. The conditions noted are these: minipig, topical or ocular, 4 % cream, BID.
A further series relates to AhR pathway. The conditions noted are these: intestinal human colon adenocarcinoma.
For series [6] the following is noted: Gao et al., Journal of Polymer Research 2011; cited from earlier work.

Marks after values point to notes of the source that are not given here.

With `CC(C)c1c(O)cc(/C=C/c2ccccc2)cc1O` [3,5-Dihydroxy-4-isopropyl-trans-stilbene], the “survival to scheduled necropsy” value in series [1] (28 days) is recorded as “All animals survived”. In series [1] (both sexes, Gottingen, minipig, in vivo, 60 mg/kg/day), the Tmax was 1 to 3 h. Also, in series [1] (both sexes, Gottingen, minipig, in vivo, topical or ocular, highest dose tested, 28 days, read-out: NOAEL for dermal irritation or systemic toxicity), the NOAEL at 28 days came out at 60 mg/kg/day. Besides, the concentration at 29 day in series [1] (female, Gottingen, minipig, 10 mg/kg/day, Epidermis/Upper Dermis) came out at 2540 ng/g; in series [1] (female, Gottingen, minipig, 20 mg/kg/day, Epidermis/Upper Dermis) it was 2270 ng/g; in series [1] (female, Gottingen, minipig, 20 mg/kg/day, Lower Dermis) it was 305 ng/g; in series [1] (female, Gottingen, minipig, 60 mg/kg/day, Epidermis/Upper Dermis), 6530 ng/g; in series [1] (female, Gottingen, minipig, 60 mg/kg/day, Lower Dermis), 3040 ng/g; in series [1] (male, Gottingen, minipig, 10 mg/kg/day, Epidermis/Upper Dermis), 4830 ng/g. The concentration at 29 day in series [1] (male, Gottingen, minipig, 10 mg/kg/day, Lower Dermis) stood at 166 ng/g; in series [1] (male, Gottingen, minipig, 20 mg/kg/day, Epidermis/Upper Dermis) it was 3950 ng/g; in series [1] (male, Gottingen, minipig, 20 mg/kg/day, Lower Dermis), 615 ng/g; in series [1] (male, Gottingen, minipig, 60 mg/kg/day, Epidermis/Upper Dermis), 10000 ng/g; in series [1] (male, Gottingen, minipig, 60 mg/kg/day, Lower Dermis), 3660 ng/g. In addition, the AUC(0-t) in series [1] (female, Gottingen, minipig, in vivo, topical or ocular, 60 mg/kg/day) was 4.84 ng·h/mL. Also, the “dermal irritation at the dose site” value in series [1] (minipig, in vivo, 60 mg/kg/day) is recorded as “no test article-related dermal irritation”. In addition, in series [2], the “Cmax NOAEL” value is given as 7.13* ng/mL. In series [3], the “solubility in medium chain triglycerides (MCT)” value was “good solubility”. For the same molecule, the solubility in water entry in series [3] was “not soluble”. Moreover, the values for the Cmax in the series “in vivo [4]” and in the series “in vivo [5]” were 31.6 ng/mL and 7.13 ng/mL, respectively. The AUC at 13 weeks in the series “in vivo [5]” stood at 99 ng·h/mL. The “activity on the AhR pathway” value in the series on AhR pathway is given as “activator”. Besides, the “sensitivity to oxidation and photo degradation” value in series [6] is “sensitive to oxidation and photo degradation”.

(Values after patent US11612573B2, “Topical pharmaceutical compositions” (Dermavant Sciences GmbH, priority 2015, dated 2023).)
